“And” between values parts separate entries of the source, which are not always exact repeats. Equal entries are not always repeated. Where two headings read alike, the source gives them in different places. *1 amine or outer side, *2 acyl side, *3 side chain or, on linkers, in order; H or OH if unused. Where a SMILES comes first, the peptide text is derived from it. Bridges are numbered along the chain shown (N, C = ends). Roman numbers before positions name the chains, in order. [ ]: non-standard residue; d: D form. Actinocin(9to1) = Cc1c2oc3c(C)ccc(C(=O)[*:1])c3nc-2c(C(=O)[*:2])c(N)c1=O; NMeV = CN[C@H](C(=O)O)C(C)C; Sar = CNCC(=O)O
How the values were obtained:
ICAM-1-LFA-1 adhesion = ICAM-1-LFA-1 adhesion (Homo sapiens, UniProt P05107+P20701); settings: Marlin, S.D., et al., cell 51:813-819 (1987); cited from earlier work
human dermal fibroblasts = assay type: cell-based
Protocol: The kinetics of interleukin 1 and gamma interferon effects on ICAM-1 expression on dermal fibroblasts were determined using the ¹²⁵I goat anti-mouse IgG binding assay of Dustin, M.L. et al. (J. Immunol. 137:245-254 (1986); which reference is herein incorporated by reference). To perform this binding assay, human dermal fibroblasts were grown in a 96-well microtiter plate to a density of 2-8 x 10⁴ cells/well (0.32 cm²). The cells were washed twice with RPMI 1640 medium supplemented as described in Example 1. The cells were additionally washed once with Hanks Balanced Salt Solution (HBSS), 10 mM HEPES, 0.05% NaN₃ and 10% heat-inactivated fetal bovine serum. Washing with this binding buffer was done at 4°C. To each well was added 50 »l of the above-described binding buffer and 50 »l of the appropriate hybridoma supernatant with X63 and W6/32 as the negative and positive controls, respectively. After incubation for 30 minutes at 4°C, with gentle agitation, the wells were washed twice with binding buffer, and the second antibody ¹²⁵I-goat anti-mouse IgG, was added at 50 nCi in 100 »l. The ¹²⁵I-goat anti-mouse antibody was prepared by using Iodogen (Pierce) according to the method of Fraker, P.J. et al. (Biochem. Biophys. Res. Commun. 80:849 (1978)). After 30 minutes at 4°C, the wells were washed twice with 200 »l of binding buffer and the cell layer was solubilized by adding 100 »l of 0.1 N NaOH. This and a 100 »l wash were counted in a Beckman 5500 gamma counter. The specific counts per minute bound was calculated as [cpm with monoclonal antibody]-[cpm with X63]. All steps, including induction with specific reagents, were carried out in quadruplicate.

[1] = system: human umbilical vein endothelial cells (HUVEC); assay: Radioimmune assay of ICAM-1 expression (¹²⁵I RR1/1 binding) on HUVEC; assay type: cell-based
Protocol: In order to measure ICAM-1 expression, a radioimmune assay was developed. In this assay, purified RR1/1 was iodinated using iodogen to a specific activity of 10 »Ci/»g. Endothelial cells were grown in 96 well plates and treated as described for each experiment. The plates were cooled at 4°C by placing in a cold room for 0.5-1 hr, not immediately on ice. The monolayers were washed 3x with cold complete media and then incubated 30 m at 4°C with ¹²⁵I RR1/1. The monolayers were then washed 3x with complete media. The bound ¹²⁵I was released using 0.1 N NaOH and counted. The specific activity of the ¹²⁵I RR1/1 was adjusted using unlabeled RR1/1 to obtain a linear signal over the range of antigen densities encountered in this study. Non-specific binding was determined in the presence of a thousand fold excess of unlabeled RR1/1 and was subtracted from total binding to yield the specific binding.

[2] = system: Peripheral blood mononuclear cells (PBMC); assay: cells; settings: Homo sapiens
[3] = system: Peripheral blood mononuclear cells (PBMC); settings: Table 19, R x S; R6-5-D6 8 ng/ml, Azathioprine 1 ng/ml; no inhibitor 49,570
JY cells = assay: LFA-1 dependent aggregation of JY cells (qualitative and quantitative aggregation assays); assay type: cell-based; settings: 50 ng/ml of PMA; quantitative assay, 200 rpm, 2 hours; SD = 8%, N = 6
Protocol: In order to assess the extent of cellular adhesion, aggregation assays were employed. Cell lines used in such assays were washed two times with RPMI 1640 medium containing 5 mM Hepes buffer (Sigma Chemical Co., St. Louis) and resuspended to a concentration of 2 x 10⁶ cells/ml. Added to flat-bottomed, 96-well microtiter plates (No. 3596; Costar, Cambridge, MA) were 50 »l of appropriate monoclonal antibody supernatant or 50 »l of complete medium with or without purified monoclonal antibodies, 50 »l of complete medium containing 200 ng/ml of the phorbol ester phorbol myristate acetate (PMA) and 100 »l of cells at a concentration of 2 x 10⁶ cells/ml in complete medium. This yielded a final concentration of 50 ng/ml PMA and 2 x 10⁵ cells/well. Cells were allowed to settle spontaneously, and the degree of aggregation was scored at various time points. […] In order to obtain a more quantitative estimate of cellular adhesion, reagents and cells were added to 5 ml polystyrene tubes in the same order as above. Tubes were placed in a rack on a gyratory shaker at 37°C. […] Percent aggregation was determined by the following equation: [formula] […]
As a second means of measuring adhesion, the quantitative assay described in Example 2 was used. […]

[4] = IL 1 (10 U/ml) (4 hr), alone or + cycloheximide 20 »g/ml, actinomycin D 10 »M, tunicamycin 2 »g/ml, mean ± SD
[5] = no cytokine, Control (4 hr) 1524 ± 140, cycloheximide 20 »g/ml, actinomycin D 10 »M, tunicamycin 2 »g/ml, mean ± SD
[6] = no cytokine, Control (4 hr) 11928 ± 600, cycloheximide 20 »g/ml, actinomycin D 10 »M, tunicamycin 2 »g/ml, mean ± SD
[7] = IFN-γ (10 U/ml) (18 hr), alone or + cycloheximide 20 »g/ml, actinomycin D 10 »M, mean ± SD

Sequence of ICAM-1-LFA-1 adhesion (P20701 26-1170): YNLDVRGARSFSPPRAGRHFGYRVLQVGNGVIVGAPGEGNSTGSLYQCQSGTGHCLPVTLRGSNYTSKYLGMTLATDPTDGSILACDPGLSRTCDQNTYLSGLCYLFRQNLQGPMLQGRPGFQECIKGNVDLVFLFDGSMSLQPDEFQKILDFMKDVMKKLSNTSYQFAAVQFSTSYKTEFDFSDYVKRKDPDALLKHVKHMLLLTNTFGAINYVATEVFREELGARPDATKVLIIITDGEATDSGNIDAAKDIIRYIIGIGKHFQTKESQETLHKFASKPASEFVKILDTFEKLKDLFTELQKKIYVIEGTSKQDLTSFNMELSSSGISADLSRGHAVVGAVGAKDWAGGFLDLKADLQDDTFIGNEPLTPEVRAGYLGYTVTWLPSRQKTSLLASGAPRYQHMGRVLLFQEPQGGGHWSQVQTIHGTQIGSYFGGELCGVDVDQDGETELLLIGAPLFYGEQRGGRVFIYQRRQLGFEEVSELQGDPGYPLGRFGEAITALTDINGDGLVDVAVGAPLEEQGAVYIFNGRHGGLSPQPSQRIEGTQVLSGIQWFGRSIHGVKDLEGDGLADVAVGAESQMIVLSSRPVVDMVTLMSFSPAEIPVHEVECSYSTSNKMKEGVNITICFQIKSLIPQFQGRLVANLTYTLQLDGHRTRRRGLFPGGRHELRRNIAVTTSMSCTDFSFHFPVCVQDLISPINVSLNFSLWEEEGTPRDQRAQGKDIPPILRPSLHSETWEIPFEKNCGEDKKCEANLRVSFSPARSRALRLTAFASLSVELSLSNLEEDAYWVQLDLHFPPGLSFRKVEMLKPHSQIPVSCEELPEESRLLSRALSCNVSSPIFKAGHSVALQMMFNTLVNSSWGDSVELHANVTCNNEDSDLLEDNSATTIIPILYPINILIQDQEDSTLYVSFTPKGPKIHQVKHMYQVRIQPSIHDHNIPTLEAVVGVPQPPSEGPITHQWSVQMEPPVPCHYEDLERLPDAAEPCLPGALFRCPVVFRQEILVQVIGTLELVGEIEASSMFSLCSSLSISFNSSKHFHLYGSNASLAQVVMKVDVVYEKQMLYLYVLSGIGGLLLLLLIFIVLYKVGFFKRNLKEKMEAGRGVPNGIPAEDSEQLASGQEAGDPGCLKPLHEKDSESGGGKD
Sequence of ICAM-1-LFA-1 adhesion (P05107 23-769): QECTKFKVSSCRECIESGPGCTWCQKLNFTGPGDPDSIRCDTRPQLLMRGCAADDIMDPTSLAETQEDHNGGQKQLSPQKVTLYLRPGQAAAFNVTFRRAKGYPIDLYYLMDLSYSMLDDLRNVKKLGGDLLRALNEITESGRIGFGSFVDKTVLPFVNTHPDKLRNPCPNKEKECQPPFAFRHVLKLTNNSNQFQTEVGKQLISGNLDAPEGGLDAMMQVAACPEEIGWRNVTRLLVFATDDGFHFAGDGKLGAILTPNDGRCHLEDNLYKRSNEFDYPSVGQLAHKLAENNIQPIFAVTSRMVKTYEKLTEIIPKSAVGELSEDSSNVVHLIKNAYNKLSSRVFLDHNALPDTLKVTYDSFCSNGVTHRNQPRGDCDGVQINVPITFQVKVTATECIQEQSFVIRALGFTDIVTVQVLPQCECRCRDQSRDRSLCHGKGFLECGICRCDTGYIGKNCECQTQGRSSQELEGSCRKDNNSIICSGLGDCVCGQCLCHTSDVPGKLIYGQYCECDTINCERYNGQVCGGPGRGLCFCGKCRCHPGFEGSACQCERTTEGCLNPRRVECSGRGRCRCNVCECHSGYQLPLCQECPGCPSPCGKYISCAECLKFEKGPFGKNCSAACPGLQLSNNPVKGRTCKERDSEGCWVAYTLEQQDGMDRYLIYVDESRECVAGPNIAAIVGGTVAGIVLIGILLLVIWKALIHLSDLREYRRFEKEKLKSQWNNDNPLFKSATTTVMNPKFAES

In the case of GRGDSP, the “inhibit ICAM-1-LFA-1 adhesion” value (ICAM-1-LFA-1 adhesion) is listed as “failure”.
With tunicamycin the “¹²⁵I Goat Anti-Mouse IgG Specifically Bound (cpm) anti-HLA-A,B,C” value (human dermal fibroblasts; [4]) was 13434 ± 661 cpm, the “¹²⁵I Goat Anti-Mouse IgG Specifically Bound (cpm) anti-ICAM-1” value (human dermal fibroblasts; [4]) was 3084 ± 113 cpm and the “inhibited the interleukin 1 effect on ICAM-1 expression” value (human dermal fibroblasts; fibroblasts, tunicamycin 2 »g/ml) was 43%. For the same molecule, the “¹²⁵I Goat Anti-Mouse IgG Specifically Bound (cpm) anti-ICAM-1” value (human dermal fibroblasts; [5]) was 1461 ± 176 cpm and the “¹²⁵I Goat Anti-Mouse IgG Specifically Bound (cpm) anti-HLA-A,B,C” value (human dermal fibroblasts; [6]) was 12340 ± 940 cpm.
With `C[C@@H]1C[C@@H]([C@H](O)CC2CC(=O)NC(=O)C2)C(=O)[C@@H](C)C1` [cycloheximide] the “¹²⁵I Goat Anti-Mouse IgG Specifically Bound (cpm) anti-HLA-A,B,C” value (human dermal fibroblasts) was 10675 ± 800 cpm and 10678 ± 471 cpm and 12676 ± 446 cpm and the “¹²⁵I Goat Anti-Mouse IgG Specifically Bound (cpm) anti-ICAM-1” value (human dermal fibroblasts) was 1461 ± 59 cpm and 1513 ± 210 cpm and 1619 ± 381 cpm.
With `Cc1c2oc3c(C)ccc(C(=O)N[C@@H]4C(=O)N[C@H](C(C)C)C(=O)N5CCC[C@H]5C(=O)N(C)CC(=O)N(C)[C@@H](C(C)C)C(=O)O[C@@H]4C)c3nc-2c(C(=O)N[C@@H]2C(=O)N[C@H](C(C)C)C(=O)N3CCC[C@H]3C(=O)N(C)CC(=O)N(C)[C@@H](C(C)C)C(=O)O[C@@H]2C)c(N)c1=O` [actinomycin D] (I: T[dV]P[Sar][NMeV] / II: T[dV]P[Sar][NMeV]; ester I:1-I:C, II:1-II:C; linker I:N-II:N via Actinocin(9to1)) the “¹²⁵I Goat Anti-Mouse IgG Specifically Bound (cpm) anti-HLA-A,B,C” value (human dermal fibroblasts; [7]) was 12089 ± 550 cpm, the “¹²⁵I Goat Anti-Mouse IgG Specifically Bound (cpm) anti-ICAM-1” value (human dermal fibroblasts; [7]) was 1326 ± 186 cpm and the “¹²⁵I Goat Anti-Mouse IgG Specifically Bound (cpm) anti-HLA-A,B,C” value (human dermal fibroblasts; [4]) was 12294 ± 123 cpm. The “¹²⁵I Goat Anti-Mouse IgG Specifically Bound (cpm) anti-ICAM-1” value (human dermal fibroblasts; [4]) was 1613 ± 88 cpm, the “effects of both interleukin 1 and gamma interferon on ICAM-1 expression on fibroblasts” value (human dermal fibroblasts; cycloheximide 20 »g/ml, actinomycin D 10 »M) was “abolish” and the “¹²⁵I Goat Anti-Mouse IgG Specifically Bound (cpm) anti-ICAM-1” value (human dermal fibroblasts; [5]) was 1590 ± 46 cpm. For the same molecule, the “¹²⁵I Goat Anti-Mouse IgG Specifically Bound (cpm) anti-HLA-A,B,C” value (human dermal fibroblasts; [6]) was 12276 ± 608 cpm.
For GRGESP, the “inhibit ICAM-1-LFA-1 adhesion” value (ICAM-1-LFA-1 adhesion) is given as “failure”.
In the case of polymyxin B, the “¹²⁵I Specifically bound (CPM)” value ([1]; HUVEC, 16 hr, 100 ng/ml rIL-1 beta, 50 ng/ml rIL-1 alpha, 50 ng/ml rTNF alpha, 10 »g/ml LPS, 10 ng/ml rIFN gamma, polymyxin B 10 »g/ml, control 603 ± 11) is reported as 480 ± 23 CPM and the “decreased ICAM-1 expression (basal)” value ([1]; polymyxin B at 10 »g/ml, cells in low endotoxin serum, additional decrease) is reported as 25%.
For `Cn1cnc([N+](=O)[O-])c1Sc1ncnc2nc[nH]c12` [Azathioprine], the inhibition at 0.001 µg/mL [2] was 14% and the “³HT Incorporation (CPM)” value [3] was 42,710 CPM.
For `CCCCCCCCCCCCCC(=O)O[C@@H]1[C@@H](C)[C@@]2(O)[C@@H](C=C(CO)C[C@]3(O)C(=O)C(C)=C[C@@H]23)[C@@H]2C(C)(C)[C@]12OC(C)=O` [PMA, phorbol myristate acetate], the “JY cells in aggregates” value (JY cells) was 87%.
